The text below walks through data of PubChem BioAssay AID1053121 (Broad Institute, 2014).

Where “and” joins values, the source holds several entries; their conditions need not be identical. Equal values may be shown once. Calls of active or inactive are those of the source.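 The calls were made as follows: active = fitted curve reaches 40% activation below the top valid dose in every replicate test, signal rising; inconclusive = replicate tests disagree on the call; inactive = all replicate tests inactive, including opposite-direction effects.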

System in the first test: not listed separately
The test can be described thus: luciferase reporter signal increase in glioma cells, dose response, N-linked glycosylation inhibitor project, D54 ERlucT glioma cells, dry powder, set 6 (AID 1053121). Conditions: D54 ERlucT glioma cells, NLG luciferase reporter gain-of-signal, 24 h; at 19.5 µM (top of the series). In general terms: Reporter assays use an easily measured gene product as a stand-in for the process of interest.
Turning to `C/C(=N\NC(=O)c1c([N+](=O)[O-])c(C)nn1C)c1ccc(NC(=O)C2CCCC2)cc1`, the activation (reporter increase) was -76.5% (inactive).

`COc1ccccc1NC(=O)c1cc(S(=O)(=O)N(C)C)ccc1N1CCCC1`: the activation (reporter increase) was 30.1% (inactive).

Regarding `COc1ccc(CSc2nnc(-c3ccccc3)o2)cc1`, the activation (reporter increase) is -76.5% (inactive).

As to `COc1ccccc1-c1nnc(SCc2ccccc2)o1`, the activation (reporter increase) was -20.7% (inactive).

On to `CCCNS(=O)(=O)c1cccc(C(=O)OCc2cc(=O)oc3cc(OC)ccc23)c1`, for which the activation (reporter increase) was -91.2% (inactive).

In the case of `Cc1ccc2cc(CN(CCCN(C)C)C(=O)Nc3ccccc3)c(=O)[nH]c2c1C`, the activation (reporter increase) is -11.1% (inactive).

Turning to `CN(C)CCCN(Cc1cc2ccccc2[nH]c1=O)C(=O)Nc1ccccc1`, the activation (reporter increase) was -2.22% (inactive).

Take `CN(C)S(=O)(=O)c1ccc(N2CCCC2)c(C(=O)Nc2ccncc2)c1`: the activation (reporter increase) is 16.1% (inactive).

For the compound `CN(C)S(=O)(=O)c1ccc(N2CCCC2)c(C(=O)Nc2ccccc2Cl)c1`, the activation (reporter increase) is 5.18% (inactive).

As for `Cc1cnc(NC(=O)c2cccc(S(=O)(=O)N(C)C)c2)s1`, the activation (reporter increase) is -7.17% (inactive).

For the compound `Cc1cnc(NC(=O)c2cc(S(=O)(=O)N(C)c3ccccc3)ccc2N2CCCC2)s1`, the activation (reporter increase) is 10.9% (inactive).

Take `Cc1cnc(NC(=O)c2cc(S(=O)(=O)N(C)C)ccc2N2CCNCC2)s1`: the activation (reporter increase) was -10.1% (inactive).

As to `CN(C)S(=O)(=O)c1ccc(N2CCCC2)c(C(=O)NC2CCCCC2)c1`, the activation (reporter increase) is -20% (inactive).

Regarding `CN(C)CCCN(Cc1cc2ccccc2[nH]c1=O)C(=O)NCc1ccccc1`, the activation (reporter increase) is 0% (inactive).

For the compound `CN(C)S(=O)(=O)c1ccc(N2CCCC2)c(C(=O)N2CCOCC2)c1`, the activation (reporter increase) was 3.4% (inactive).

For the compound `c1ccc(CSc2nnc(-c3ccccc3)o2)cc1`, the activation (reporter increase) is -94.1% (inactive).

On to `COc1ccc2sc(NC(=O)c3cc(S(=O)(=O)N(C)C)ccc3N3CCCC3)nc2c1`, for which the activation (reporter increase) was 29.4% (inactive).

For the compound `Cc1ccccc1NC(=O)c1cc(S(=O)(=O)N(C)C)ccc1N1CCCC1`, the activation (reporter increase) is 8.74% (inactive).

As for `Brc1ccc(CSc2nnc(-c3ccccc3)o2)cc1`, the activation (reporter increase) was -58.8% (inactive).

On to `COc1ccccc1CSc1nnc(-c2ccccc2)o1`, for which the activation (reporter increase) is -67.6% (inactive).

As for `CN(C)S(=O)(=O)c1ccc(N2CCCC2)c(C(=O)Nc2cccnc2)c1`, the activation (reporter increase) is 48.4% (inactive).

For `COc1ccc(-c2nnc(SCc3ccccc3)o2)cc1`, the activation (reporter increase) was -91.2% (inactive).

Regarding `O=C(Cc1ccccc1)c1nnc(-c2ccccc2)o1`, the activation (reporter increase) was -94.1% (inactive).

`O=C1CCN(Cc2ccccc2)c2cc3ccccc3cc21`: the activation (reporter increase) was 30.6% (inactive).

As to `CN(C)S(=O)(=O)c1ccc(N2CCCC2)c(C(=O)Nc2ccccc2F)c1`, the activation (reporter increase) is -4.62% (inactive).

For the compound `Cc1cc(=O)[nH]c(N/N=C/c2cc(C)n(CC(F)(F)F)c2C)n1`, the activation (reporter increase) is -91.2% (inactive).

Take `COc1ccc2c(COC(=O)c3cccc(S(=O)(=O)NCC(C)C)c3)cc(=O)oc2c1`: the activation (reporter increase) was 19.5% (inactive).

Take `COc1cccc2sc(NC(=O)c3cc(S(=O)(=O)N(C)C)ccc3N3CCCC3)nc12`: the activation (reporter increase) was 5.88% (inactive).

For `Cc1nc(NC(=O)c2cc(S(=O)(=O)N(C)C)ccc2N2CCCC2)n[nH]1`, the activation (reporter increase) was 14.6% (inactive).

In the case of `CN(C)S(=O)(=O)c1ccc(N2CCCC2)c(C(=O)Nc2ccc(Br)cc2)c1`, the activation (reporter increase) is 32% (inactive).

As to `Cc1cc(C)nc(/N=C(\N)Nc2ccc(OCc3ccccc3)cc2)n1`, the activation (reporter increase) is -50% (inactive).

Turning to `Cc1cnc(NC(=O)c2cc(S(=O)(=O)N(CC(C)C)CC(C)C)ccc2N2CCCC2)s1`, the activation (reporter increase) was -35.5% (inactive).

Take `O=C1CCNc2cc3ccccc3cc21`: the activation (reporter increase) is -83.9% (inactive).

The next test has as its system D54 ERlucT glioma cells, NLG luciferase reporter gain-of-signal, 24 h. The test is described as above.
Conditions: not given
Turning to `Cc1ccc(NC(=O)c2cc(S(=O)(=O)N(C)C)ccc2N2CCCC2)cc1`, the AC40 was 1240 nM.

`CCN(CC)CCC(=O)Nc1cccc2c1C(=O)c1ccccc1C2=O`: the AC40 is 729 nM.

`Cc1ccc2cc(CN(CCCN(C)C)C(=O)NCc3ccccc3)c(=O)[nH]c2c1C`: the AC40 is 2680 nM.

Turning to `COc1ccc(NC(=O)c2cc(S(=O)(=O)N(C)C)ccc2N2CCCC2)cc1`, the AC40 is 10300 nM.

On to `CCCCOc1ccccc1C1CC(=O)NC2=C1C(=O)CCC2` (stereo unspecified), for which the AC40 is 948 nM.

Take `COC(=O)c1cn(C(=O)c2ccc(OC)cc2)c2ccccc12`: the AC40 was 1210 nM.

Regarding `Cc1cnc(NC(=O)c2cc(S(=O)(=O)N3CCCCC3)ccc2N2CCCC2)s1`, the AC40 is 7070 nM.

Take `Cc1ccc(CCC(=O)Nc2ncc(Cc3cc(Cl)ccc3Cl)s2)o1`: the AC40 was 205 nM.

Consider `Cc1cnc(NC(=O)c2cc(S(=O)(=O)N(C)C)ccc2N2CCCCC2)s1`, for which the AC40 was 13700 nM.

For `Cc1cnc(NC(=O)c2cc(S(=O)(=O)N(C)C)ccc2N2CCC2)s1`, the AC40 is 364 nM.

Regarding `CN(C)S(=O)(=O)c1ccc(N2CCCC2)c(C(=O)Nc2nc3ccccc3s2)c1`, the AC40 was 467 nM.

As to `Cc1csc(NC(=O)c2cc(S(=O)(=O)N(C)C)ccc2N2CCCC2)n1`, the AC40 was 575 nM.

Take `CCOc1ccc(NC(=O)c2cc(OC)nc3ccccc23)cc1`: the AC40 was 410 nM.

`CN(C)S(=O)(=O)c1ccc(N2CCCC2)c(C(=O)Nc2nccs2)c1`: the AC40 is 1910 nM.

`CN(C)S(=O)(=O)c1ccc(N2CCCC2)c(C(=O)Nc2cccc(F)c2)c1`: the AC40 was 2610 nM.

In the case of `Cc1cnc(NC(=O)c2cc(S(=O)(=O)N(C)C)ccc2N2CCCC2)s1`, the AC40 is 421 nM and 69.3 nM and 209 nM.

Turning to `CCCOC(=O)c1[nH]c2c(c1C)C(=O)CC(c1cccs1)C2` (stereo unspecified), the AC40 is 1500 nM.

As for `CC(=O)N[C@H]1[C@@H](O[C@@H]2OC(C[C@@H](O)C3O[C@@H](n4ccc(=O)[nH]c4=O)[C@H](O)[C@@H]3O)[C@H](O)[C@H](O)[C@H]2NC(=O)/C=C/CCCCCCCCCCC(C)C)O[C@H](CO)[C@@H](O)[C@@H]1O` (stereo partly specified), the AC40 is 278 nM.

In the case of `Cc1ccc(Oc2ccc(S(=O)(=O)N3CCOCC3)cc2C(N)=O)c(-n2nc3ccccc3n2)c1`, the AC40 was 3400 nM.

For the compound `COc1cc(-c2nnc(SCC3(c4ccc(Br)cc4)OCCO3)o2)cc(OC)c1OC`, the AC40 is 1340 nM.

Turning to `Cc1cnc(NC(=O)c2cc(S(=O)(=O)N(C)C)ccc2N(C)C)s1`, the AC40 was 5200 nM.

For `Cc1ccc(C(=O)c2cc([N+](=O)[O-])ccc2N2CCOCC2)cc1C`, the AC40 was 1100 nM.

Take `O=C(N/N=C/c1ccc(Cl)cc1)c1sccc1OCc1ccc(F)cc1`: the AC40 was 839 nM.

For `Cc1cnc(NC(=O)c2cc(S(=O)(=O)N3CCCC3)ccc2N2CCCC2)s1`, the AC40 is 934 nM.

Turning to `CCOC(=O)COc1cccc2c(=O)n(CC(=O)NCc3ccccc3)ccc12`, the AC40 is 121 nM.

With `Cc1cnc(NC(=O)c2cc(S(=O)(=O)N3CCNCC3)ccc2N2CCCC2)s1`, the AC40 is 9460 nM.

Turning to `COc1cc(Nc2c3c(nc4ccccc24)CCCC3)cc(OC)c1OC`, the AC40 was 3590 nM.

On to `Cc1ccc(/C=N/NC(=O)C2COc3ccccc3O2)s1` (stereo unspecified), for which the AC40 is 1210 nM.

Take `Nc1nc(=S)c2ncn([C@@H]3O[C@H](CO)[C@@H](O)[C@H]3O)c2[nH]1`: the AC40 is 771 nM.

As for `CCOC(=O)c1ccc(Oc2cc(C)nc(SC)n2)cc1`, the AC40 is 3890 nM.

On to `CCN(CC)S(=O)(=O)c1ccc(N2CCCC2)c(C(=O)Nc2ncc(C)s2)c1`, for which the AC40 is 12000 nM.

As to `COc1ccccc1OCC(=O)NNC(=O)c1ccoc1C`, the AC40 is 633 nM.

For `CC(=O)c1ccc(Oc2cc(C)nc(-n3nc(C)cc3C)n2)cc1`, the AC40 is 645 nM.

`CCC1=Nc2cc(C(=O)NCCCOC)ccc2Sc2ccccc21`: the AC40 is 404 nM.

With `Cc1cc(C)cc(C(=O)N2CC(=O)Nc3ccccc32)c1`, the AC40 was 12100 nM.

For the compound `COc1ccc(NC(=O)C(=O)c2cn(CC(=O)N3CCCC3)c3ccccc23)cc1`, the AC40 is 62.1 nM.

As for `Cc1cc(NC(=O)CSc2nc(-c3ccco3)cc(C(F)(F)F)n2)no1`, the AC40 is 434 nM.

On to `COc1cc(C(=O)NCCOc2cc(C)cc(C)c2)cc(OC)c1OC`, for which the AC40 was 1850 nM.

Take `CN(C)S(=O)(=O)c1ccc(N2CCCC2)c(C(=O)Nc2ccccc2)c1`: the AC40 was 1080 nM.

For the compound `Cc1cnc(NC(=O)c2cc(S(=O)(=O)N3CCOCC3)ccc2N2CCCC2)s1`, the AC40 was 307 nM.

In the case of `CC(=O)c1cccc(NC(=O)CSc2ncc(C(=O)Nc3ccccc3)c(=O)n2C)c1`, the AC40 was 6870 nM.

Turning to `CC(=O)N1CCC(=O)c2cc3ccccc3cc21`, the AC40 was 2420 nM.

With `Cc1cnc(NC(=O)c2cc(S(=O)(=O)NCc3ccccc3)ccc2N2CCCC2)s1`, the AC40 was 3670 nM.

For `CCN(CC)CCOc1ccc2c(c1)C(=NNC(=O)c1ccccn1)c1cc(OCCN(CC)CC)ccc1-2`, the AC40 was 3070 nM.

As for `Cc1[nH][nH]c(=O)c1C(c1ccc(-c2ccc(Cl)c(Cl)c2)o1)c1c(C)[nH][nH]c1=O`, the AC40 was 1020 nM.

In the case of `Cc1nnc(NC(=O)c2cc(S(=O)(=O)N(C)C)ccc2N2CCCC2)s1`, the AC40 is 4570 nM.

Take `COc1cccc(N2CCN(C(=O)c3ccc(CS(=O)c4ccc(C)cc4)o3)CC2)c1` (stereo unspecified): the AC40 is 237 nM.

Turning to `Cc1cccc(C)c1OCCNC(=O)C(=O)NCc1ccco1`, the AC40 was 3620 nM.

With `CCN(CC)CCCNc1nc2cc(OC)c(OC)cc2c2nc(-c3ccccc3)nn12`, the AC40 is 1660 nM.

Turning to `Cc1cnc(NC(=O)c2cc(S(=O)(=O)N(C)C)ccc2C2CCCC2)s1`, the AC40 is 2210 nM.

`CCn1c2ccccc2c2cc(NC(=O)c3cc(OC)c(OC)c(OC)c3)ccc21`: the AC40 is 41.9 nM.

Take `CCN(CC)c1ccc(S(=O)(=O)N(C)C)cc1C(=O)Nc1ncc(C)s1`: the AC40 was 3210 nM.

Consider `CCOc1ccc(S(=O)(=O)NCc2ccccn2)cc1NC(=O)c1ccccc1F`, for which the AC40 was 1370 nM.
